In US9622953B2, “Cosmetic use of catalytic oxidation compounds chosen from porphyrins, phthalocyanines and/or porphyrazines as deodorant agent” (L'Oreal, priority 2011, dated 2017):

What was measured:
[1] = Blind sniff test of incubated flasks of human sweat by a panel of 8 testers; settings: 1 mg of porphyrin compound in flask of sweat, same trial as Example 1
Experimental: 1) Human sweat is collected. During this collecting, the sweat is frozen.
2) The sweat is subsequently placed in a flask, so that there is an air phase above, once the flask is closed. 1 gram of sweat is placed in a 20 ml flask.
3) The porphyrin compound is placed in the flask in a proportion of 0.1 mg.
4) The flask is closed and incubated at 37° C. A test is then carried out which consists in sniffing the flask at t=4 hours and at t=16 hours.
The test is carried out blind and in comparison with a flask of sweat not comprising additive, a flask of sweat comprising a porphyrin compound not included in the present invention, such as cupric chlorophyllin, and a flask of sweat comprising 0.1 mg of triclosan.
The test is carried out by a panel composed of 8 testers who record their impression in terms of odorous intensity and of quality (ranging from neutral up to repulsive) and the mean of the impressions is produced.
1 mg of each of the porphyrin compounds is introduced into flasks comprising sweat collected in the same way as in Example 1.

[2] = Test 2: Oxidation of DMPO; settings: aqueous solution pH=7, 100 mM DMPO, porphyrin 100 μM, oxygen saturated, daylight, 1 hour, EPR
Experimental: (§1) The oxidizing agent used during this test is dissolved oxygen.
An aqueous solution, pH=7, comprising 100 mM of DMPO and a porphyrin compound at 100 μM, is prepared. The solution is saturated with oxygen. The solution is subjected to daylight.
After 1 hour, electron paramagnetic resonance spectrometry (EPR) is performed on the oxidized form of the compound 5,5-dimethyl-1-pyrroline N-oxide, known as DMPO-OH.
More specifically, the EPR spectrum is characterized by a hyperfine coupling constant of a^N=a^H=14.6 G.

[3] = Test 1: Oxidation of 2,2,6,6-tetramethylpiperidine (TEMP); settings: phosphate buffer pH 7.4, 50 mM TEMP, porphyrin 0.5 μM, oxygen saturated, daylight, 1 hour, EPR
Experimental: as §1
A solution comprising a phosphate buffer (pH 7.4), 50 mM of the compound 2,2,6,6-tetramethylpiperidine (TEMP) and a porphyrin compound at 0.5 μM is prepared. The solution is saturated with oxygen. The solution is subjected to daylight.
After 1 hour, electron paramagnetic resonance spectrometry (EPR) is performed on the oxidized form of the compound 2,2,6,6-tetramethylpiperidine (TEMP), which corresponds to the compound (2,2,6,6-tetramethylpiperidin-1-yl)oxyl, known as TEMPO.
With a porphyrin compound according to the invention, the appearance of the compound TEMPO is observed after bringing into contact for 1 hour.

[4] = Test 3: Activation of Hydrogen Peroxide; settings: 1 mM porphyrin in 10-volume hydrogen peroxide, spontaneous pH, daylight
Experimental: 1 mM of a porphyrin compound is placed in 10-volume hydrogen peroxide, spontaneous pH.
The solution is subjected to daylight.
The content of hydrogen peroxide is then assayed. The porphyrin compound is regarded as within the invention if it reduces the amount of hydrogen peroxide by factor of at least 2 (5 volumes or less).

Row | Compound | effectiveness in the sweat flask odour trial [1] | formation of DMPO-OH (response to Test 2) [2] | formation of the compound TEMPO (response to Test 1) [3] | reduction of the amount of hydrogen peroxide by factor of at least 2 (response to Test 3) [4]
1 | C[n+]1ccc(-c2c3nc(c(-c4cc[n+](C)cc4)c4ccc([nH]4)c(-c4cc[n+](C)cc4)c4nc(c(-c5cc[n+](C)cc5)c5ccc2[nH]5)C=C4)C=C3)cc1 [cationic porphyrin compound] | effective | responds positively | responds positively | 
2 | O=S(=O)(O)c1ccc(-c2c3nc(c(-c4ccc(S(=O)(=O)O)cc4)c4ccc([nH]4)c(-c4ccc(S(=O)(=O)O)cc4)c4nc(c(-c5ccc(S(=O)(=O)O)cc5)c5ccc2[nH]5)C=C4)C=C3)cc1 [anionic porphyrin compound] | effective |  | responds positively | responds positively
3 | copper chlorophyllin [reference compound] |  |  | does not result in the formation of the compound TEMPO | 
